Read-outs that look alike come from different tables or passages of the source. Ends that are not written are not given here.
Experiments:
[1] = system: Exponentially proliferating cells; assay: Intracellular detection of biotinylated peptides (cell penetration); type: cell-based
Description: Exponentially proliferating cells were rinsed twice in PBS. A total of 6×10^4 cells per well were seeded in 24 well plates and incubated in RPMI-1640 at 37° C. After 24 h, biotinylated peptides were added and incubated with cells (4 h) for intracellular analysis. Cells were rinsed in PBS and fixed with 0.1% paraformaldehyde (PFA) for 10 min before adding […] of streptavidin-peroxidase. Then, cells were rinsed with PBS, incubated with di-amino-benzidyne (DAB) for 5 min, washed in PBS and analyzed by microscopy.

[2] = system: primary B cells from CLL patients; assay: Effect of DPT-C9h on PBMC: B cells from CLL patients (annexin staining); type: cell-based, human
Description: PBMC (Peripheral Blood Mononuclear Cell) were isolated by Ficoll gradient centrifugation from healthy donors and CLL patients, cultured in complete RPMI medium and treated with 150 μM of DPT-C9h peptide. Upon 3 h of treatment, cells were washed and resuspended in complete RPMI medium. Apoptosis was estimated 6 h after washing using Annexin staining and specific markers for B cells (FIG. 4A), and for T, NK and monocytes (FIG. 4B). Apoptosis is represented as the percentage compared to cells treated with […].
PBMC were isolated by Ficoll gradient centrifugation from healthy donors and three different types of CLL patients: treated, non-treated and resistant. Cells were maintained in complete RPMI medium, treated with 150 μM of DPT-C9h peptide for 3 h and then washed and transferred to complete medium. Samples were analyzed at different times after washing. Apoptosis was estimated by annexin staining. The different populations were selected using specific markers. Apoptosis is represented as percentage compared to control non treated cells.
Mononuclear cells isolated from peripheral blood (PBMC) were prepared by Ficoll gradient centrifugation.
A total of 2.5×10^5 cells were washed with ice-cold PBS, diluted in ice-cold binding buffer and stained with annexin and propidium iodide (PI). Samples were maintained on ice for 10 min in the dark and then analyzed by flow cytometry.

[3] = system: bone marrow B cells from CLL patients; assay: Effect of DPT-C9h on bone marrow cells, CLL patients; type: cell-based, human

Compound | internalization of peptide ([1]; data not shown) | also measured
N=C(N)NCCC[C@H](NC(=O)[C@H](CCCNC(=N)N)NC(=O)[C@H](CCCNC(=N)N)NC(=O)[C@H](CCC(N)=O)NC(=O)[C@H](CCCNC(=N)N)NC(=O)[C@H](CCCNC(=N)N)NC(=O)[C@H](CCCCN)NC(=O)[C@H](CCCCN)NC(=O)[C@H](CCCNC(=N)N)NC(=O)CNC(=O)[C@@H](N)Cc1ccc(O)cc1)C(=O)O [Tat, YGRKKRRQRRR] | internalized | –
VKKKKIKREIKI [DPT-sh1, VKKKKIKREIKI] | internalized | –
VKKKKIKREIKILDESRAWQELIGDLTEIY [DPT-C9r, VKKKKIKREIKI-LDESRAWQELIGDLTEIY] | internalized | –
VKKKKIKREIKIYIETLDGILEQWARSEDL [DPT-C9, VKKKKIKREIKI-YIETLDGILEQWARSEDL] | – | internalization of peptide [1]: internalized
VKKKKIKREIKIYVETLDGIFEQWAHSEDL [DPT-C9h, VKKKKIKREIKI-YVETLDGIFEQWAHSEDL] | – | penetrating properties [2]: penetrating; cell penetrating activity [3]: cell penetrating
YIETLDGILEQWARSEDL [C9, YIETLDGILEQWARSEDL] | not internalized | –
